{
  "source": "patent US20260262643A1",
  "about": "“HERBICIDAL BENZOXAZINES” (FMC CORPORATION, priority 2022, published 2026)",
  "key": {"[1]": {"system": "oat, wild", "assay": "Test A preemergence", "type": "in vivo, Avena fatua", "conditions": "Avena fatua, pre-emergence, 240 h, read-out: Plant response rating, Oat, Wild; for pest or weed control at 125 g/ha: 125 g ai/ha; for pest or weed control at 500 g/ha: 500 g ai/ha", "summary_of_the_method": "(§1)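 Loam/sand soil; pre-em directed soil spray at planting, post-em spray at 1–2 leaf (2–10 cm). Compound in non-phytotoxic solvent + surfactant. Greenhouse 10 d; visual injury vs untreated, 0 = no effect, 100 = complete control.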"}, "[2]": {"system": "wheat", "assay": "Test A preemergence", "type": "in vivo, Triticum aestivum", "conditions": "Triticum aestivum, pre-emergence, 240 h, read-out: Plant response rating, Wheat; for plant injury at 125 g/ha: 125 g ai/ha; for plant injury at 500 g/ha: 500 g ai/ha", "summary_of_the_method": "as §1"}, "[3]": {"system": "barnyardgrass", "assay": "Test B flooded paddy test", "type": "in vivo, Echinochloa crus-galli", "conditions": "Echinochloa crus-galli, 312 h, 250 g ai/ha, Flood, 13 days, 0 to 100 scale (0 no effect, 100 complete control); read-out: Plant response rating, Barnyardgrass", "summary_of_the_method": "(§2)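 Visual scores from 0 (no effect) to 100 (complete kill) were assigned 13 days after treatment by comparison with controls. Seedlings had been treated at two leaves by adding compound to floodwater standing 3 cm deep, kept at that level in the greenhouse.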"}, "[4]": {"system": "ryegrass, Italian", "assay": "Test A preemergence", "type": "in vivo, Lolium multiflorum", "conditions": "Lolium multiflorum, pre-emergence, 240 h, read-out: Plant response rating, Ryegrass, Italian; for pest or weed control at 125 g/ha: 125 g ai/ha; for pest or weed control at 500 g/ha: 500 g ai/ha", "summary_of_the_method": "as §1"}, "[5]": {"system": "corn", "assay": "Test A preemergence", "type": "in vivo, Zea mays", "conditions": "Zea mays, pre-emergence, 240 h; for Corn plant response rating (crop injury, 0 = no effect, 100 = complete kill) at 125 g/ha: 125 g ai/ha; for Corn plant response rating (crop injury, 0 = no effect, 100 = complete kill) at 500 g/ha: 500 g ai/ha", "summary_of_the_method": "as §1"}, "[6]": {"system": "ragweed", "assay": "Test A preemergence", "type": "in vivo, Ambrosia artemisiifolia", "conditions": "Ambrosia artemisiifolia, pre-emergence, 240 h, read-out: Plant response rating, Ragweed; for pest or weed control at 125 g/ha: 125 g ai/ha; for pest or weed control at 500 g/ha: 500 g ai/ha", "summary_of_the_method": "as §1"}, "[7]": {"system": "kochia", "assay": "Test A preemergence", "type": "in vivo, Bassia scoparia", "conditions": "Bassia scoparia, pre-emergence, 240 h, read-out: Plant response rating, Kochia; for pest or weed control at 125 g/ha: 125 g ai/ha; for pest or weed control at 500 g/ha: 500 g ai/ha", "summary_of_the_method": "as §1"}, "[8]": {"system": "soybean", "assay": "Test A postemergence", "type": "in vivo, Glycine max", "conditions": "Glycine max, post-emergence, 240 h, postemergence, 10 days, 0 to 100 scale (0 no effect, 100 complete control); for plant injury at 125 g/ha: 125 g ai/ha, read-out: Soybean plant response rating; for plant injury at 500 g/ha: 500 g ai/ha, visual injury, read-out: Plant response rating, Soybean", "summary_of_the_method": "as §1"}, "[9]": {"system": "pigweed, palmer", "assay": "Test A preemergence", "type": "in vivo, Amaranthus palmeri", "conditions": "Amaranthus palmeri, pre-emergence, 240 h, read-out: Plant response rating, Pigweed, Palmer; for pest or weed control at 125 g/ha: 125 g ai/ha; for pest or weed control at 500 g/ha: 500 g ai/ha", "summary_of_the_method": "as §1"}, "[10]": {"system": "ducksalad", "assay": "Test B flooded paddy test", "type": "in vivo, Heteranthera limosa", "conditions": "Heteranthera limosa, 312 h, 250 g ai/ha, Flood, 13 days, 0 to 100 scale (0 no effect, 100 complete control); read-out: Plant response rating, Ducksalad", "summary_of_the_method": "as §2"}, "[11]": {"system": "kochia", "assay": "Test A postemergence", "type": "in vivo, Bassia scoparia", "conditions": "Bassia scoparia, post-emergence, 240 h, postemergence, 10 days, 0 to 100 scale (0 no effect, 100 complete control); for pest or weed control at 125 g/ha: 125 g ai/ha, read-out: Kochia plant response rating; for pest or weed control at 500 g/ha: 500 g ai/ha, visual injury, read-out: Plant response rating, Kochia", "summary_of_the_method": "as §1"}, "[12]": {"system": "rice", "assay": "Test B flooded paddy test", "type": "in vivo, Oryza sativa", "conditions": "Oryza sativa, 312 h; 250 g ai/ha, Flood, 13 days, 0 to 100 scale (0 no effect, 100 complete control); read-out: Plant response rating, Rice", "summary_of_the_method": "as §2"}, "[13]": {"system": "horseweed", "assay": "Test A postemergence", "type": "in vivo, Erigeron canadensis", "conditions": "Erigeron canadensis, post-emergence, 240 h, postemergence, 10 days, 0 to 100 scale (0 no effect, 100 complete control); for pest or weed control at 125 g/ha: 125 g ai/ha, read-out: Horseweed plant response rating; for pest or weed control at 500 g/ha: 500 g ai/ha, visual injury, read-out: Plant response rating, Horseweed", "summary_of_the_method": "as §1"}, "[14]": {"system": "corn", "assay": "Test A postemergence", "type": "in vivo, Zea mays", "conditions": "Zea mays, post-emergence, 240 h, postemergence, 10 days, 0 to 100 scale (0 no effect, 100 complete control); for plant injury at 125 g/ha: 125 g ai/ha, read-out: Corn plant response rating; for Corn plant response rating (crop injury, 0 = no effect, 100 = complete kill) at 500 g/ha: 500 g ai/ha, visual injury", "summary_of_the_method": "as §1"}, "[15]": {"conditions": "visual injury after 10 days, 0 to 100 scale, 0 is no effect, 100 is complete control"}, "[16]": {"conditions": "0 to 100 scale (0 no effect, 100 complete control), 10 days"}},
  "note": "Read-outs that look alike come from different tables or passages of the source.",
  "data": [
    {"smiles": "Cc1ccc(-n2cnc(C3CCC3)n2)cc1C(=O)N1C[C@H](C)Oc2c(Cl)cccc21", "note": "[Compound 96, [(2S)-8-Chloro-2,3-dihydro-2-methyl-4H-1,4-benzoxazin-4-yl][5-(3-cyclobutyl-1H-1,2,4-triazol-1-yl)-2-methylphenyl]methanone]", "values": [
      {"measurement": "pest or weed control at 125 g/ha", "setting": "[1]; [15]", "value": 50, "unit": "%"},
      {"measurement": "pest or weed control at 500 g/ha", "setting": "[1]; [16]", "value": 80, "unit": "%"},
      {"measurement": "plant injury at 125 g/ha", "setting": "[2]; [15]", "value": 20, "unit": "%"},
      {"measurement": "plant injury at 500 g/ha", "setting": "[2]; [16]", "value": 50, "unit": "%"},
      {"measurement": "pest or weed control at 250 g/ha", "setting": "[3]", "value": 60, "unit": "%"},
      {"measurement": "pest or weed control at 125 g/ha", "setting": "[4]; [15]", "value": 100, "unit": "%"},
      {"measurement": "pest or weed control at 500 g/ha", "setting": "[4]; [16]", "value": 100, "unit": "%"},
      {"measurement": "Corn plant response rating (crop injury, 0 = no effect, 100 = complete kill) at 125 g/ha", "setting": "[5]; [15]", "value": 30, "unit": "%"},
      {"measurement": "Corn plant response rating (crop injury, 0 = no effect, 100 = complete kill) at 500 g/ha", "setting": "[5]; [16]", "value": 50, "unit": "%"},
      {"measurement": "pest or weed control at 125 g/ha", "setting": "[6]; [15]", "value": 30, "unit": "%"},
      {"measurement": "pest or weed control at 500 g/ha", "setting": "[6]; [16]", "value": 30, "unit": "%"},
      {"measurement": "pest or weed control at 125 g/ha", "setting": "[7]; [15]", "value": 30, "unit": "%"},
      {"measurement": "pest or weed control at 500 g/ha", "setting": "[7]; [16]", "value": 100, "unit": "%"},
      {"measurement": "plant injury at 125 g/ha", "setting": "[8]", "value": 100, "unit": "%"},
      {"measurement": "plant injury at 500 g/ha", "setting": "[8]", "value": 100, "unit": "%"},
      {"measurement": "pest or weed control at 125 g/ha", "setting": "[9]; [15]", "value": 100, "unit": "%"},
      {"measurement": "pest or weed control at 500 g/ha", "setting": "[9]; [16]", "value": 100, "unit": "%"},
      {"measurement": "pest or weed control at 250 g/ha", "setting": "[10]", "value": 65, "unit": "%"},
      {"measurement": "pest or weed control at 125 g/ha", "setting": "[11]", "value": 90, "unit": "%"},
      {"measurement": "pest or weed control at 500 g/ha", "setting": "[11]", "value": 100, "unit": "%"},
      {"measurement": "plant injury at 250 g/ha", "setting": "[12]", "value": 0, "unit": "%"},
      {"measurement": "pest or weed control at 125 g/ha", "setting": "[13]", "value": 40, "unit": "%"},
      {"measurement": "pest or weed control at 500 g/ha", "setting": "[13]", "value": 80, "unit": "%"},
      {"measurement": "plant injury at 125 g/ha", "setting": "[14]", "value": 10, "unit": "%"},
      {"measurement": "Corn plant response rating (crop injury, 0 = no effect, 100 = complete kill) at 500 g/ha", "setting": "[14]", "value": 60, "unit": "%"}
    ]},
    {"smiles": "C[C@H]1CN(C(=S)c2cccc(-n3cncn3)c2)c2cccc(Cl)c2O1", "note": "[Compound 139, [(2S)-8-Chloro-2,3-dihydro-2-methyl-4H-1,4-benzoxazin-4-yl][3-(1H-1,2,4-triazol-1-yl)phenyl]methanethione]", "values": [
      {"measurement": "pest or weed control at 125 g/ha", "setting": "[1]; 0 to 100 scale", "value": 20, "unit": "%"},
      {"measurement": "pest or weed control at 500 g/ha", "setting": "[1]; [15]", "value": 90, "unit": "%"},
      {"measurement": "plant injury at 125 g/ha", "setting": "[2]; 0 to 100 scale", "value": 20, "unit": "%"},
      {"measurement": "plant injury at 500 g/ha", "setting": "[2]; [15]", "value": 20, "unit": "%"},
      {"measurement": "pest or weed control at 250 g/ha", "setting": "[3]", "value": 15, "unit": "%"},
      {"measurement": "pest or weed control at 125 g/ha", "setting": "[4]; 0 to 100 scale", "value": 50, "unit": "%"},
      {"measurement": "pest or weed control at 500 g/ha", "setting": "[4]; [15]", "value": 80, "unit": "%"},
      {"measurement": "Corn plant response rating (crop injury, 0 = no effect, 100 = complete kill) at 125 g/ha", "setting": "[5]; 0 to 100 scale", "value": 0, "unit": "%"},
      {"measurement": "Corn plant response rating (crop injury, 0 = no effect, 100 = complete kill) at 500 g/ha", "setting": "[5]; [15]", "value": 40, "unit": "%"},
      {"measurement": "pest or weed control at 125 g/ha", "setting": "[6]; 0 to 100 scale", "value": 0, "unit": "%"},
      {"measurement": "pest or weed control at 500 g/ha", "setting": "[6]; [15]", "value": 0, "unit": "%"},
      {"measurement": "pest or weed control at 125 g/ha", "setting": "[7]; 0 to 100 scale", "value": 0, "unit": "%"},
      {"measurement": "pest or weed control at 500 g/ha", "setting": "[7]; [15]", "value": 0, "unit": "%"},
      {"measurement": "plant injury at 125 g/ha", "setting": "[8]", "value": 90, "unit": "%"},
      {"measurement": "plant injury at 500 g/ha", "setting": "[8]", "value": 100, "unit": "%"},
      {"measurement": "pest or weed control at 125 g/ha", "setting": "[9]; 0 to 100 scale", "value": 40, "unit": "%"},
      {"measurement": "pest or weed control at 500 g/ha", "setting": "[9]; [15]", "value": 100, "unit": "%"},
      {"measurement": "pest or weed control at 250 g/ha", "setting": "[10]", "value": 75, "unit": "%"},
      {"measurement": "pest or weed control at 125 g/ha", "setting": "[11]", "value": 50, "unit": "%"},
      {"measurement": "pest or weed control at 500 g/ha", "setting": "[11]", "value": 80, "unit": "%"},
      {"measurement": "plant injury at 250 g/ha", "setting": "[12]", "value": 0, "unit": "%"},
      {"measurement": "pest or weed control at 125 g/ha", "setting": "[13]", "value": 0, "unit": "%"},
      {"measurement": "pest or weed control at 500 g/ha", "setting": "[13]", "value": 0, "unit": "%"},
      {"measurement": "plant injury at 125 g/ha", "setting": "[14]", "value": 40, "unit": "%"},
      {"measurement": "Corn plant response rating (crop injury, 0 = no effect, 100 = complete kill) at 500 g/ha", "setting": "[14]", "value": 60, "unit": "%"}
    ]}
  ]
}
